Columns and labels:
MG-63 cells [1] = assay: MTT assay, MG-63 (dose-response, pulse-exposure, combination); type: cell-based, human; conditions: Homo sapiens, MTT, 48 hours of exposure, read-out: ED50 (the source's name)
Protocol: 7 human OS cell lines (U2OS, G292, MG-63, HT-161, HOS, SAOS-2, and SJSA) were used in the study. Each cell line except HT-161 was obtained from the American Type Culture Collection (ATCC, Rockville, Md.). HT-161 was obtained from Dr. Emil Bogenmann (13). All cell lines were tested and authenticated prior to use according to cell line verification test recommendations by ATCC. OS cell lines were maintained in DMEM medium (Mediatech Inc., Herndon, Va.) supplemented with 10% fetal bovine serum (FBS; Atlanta Biological, Lawrenceville, Ga.) in a humidified incubator at 37° C. supplied with 5% CO2. Only the cells in exponential growth phase were used in the study.
Cell growth and survival were measured by 3-(4,5-dimethylthiazol-2-yl)-2,5-diphenyltetrazolium bromide (MTT) assay. […] After 48 hours of incubation, 10 μl of 5 mg/ml MTT solution (Sigma-Aldrich, St. Louis, Mo.) was added to each well and incubated further for 2 hours. […] For pulse-exposure experiments, MG-63 and SAOS-2 cells were seeded in 96-well plates and exposed to CuB at their ED50. After 2, 9, and 20 hours of exposure, cells were washed twice with PBS and incubated further in CuB-free media. Cell growth was checked by MTT assay at 24, 48, and 72 hours.
Calcusyn 2.0 (Biosoft, Ferguson, Mo.) was used for CI analysis.

MG-63 cells [2] = assay: Cell cycle analysis (PI, FACS), MG-63; type: cell-based, human; conditions: alone at ED50 (50 nM)
Protocol: (§1) Cells were harvested and fixed with 70% ethanol at regular time intervals. Fixed cells were stained with propidium iodide (PI) for flow cytometry analysis using BD FACScan (BD Biosciences, San Jose, Calif.). Distribution of cell cycle was analyzed by ModFit LT V2.0 software (Verity Software House, Topsham, Me.). […] After 24, 48, and 72 hours of exposure, cells were harvested and stained with PI and fluorescein isothiocyanate (FITC) using Annexin V-FITC apoptosis detection kit (BD Biosciences) according to the manufacturer's protocol. Cells were subjected to flow cytometry analysis within one hour of staining.

MG-63 cells [3] = assay: Annexin V-FITC apoptosis assay, MG-63; type: cell-based, human; conditions: at ED50, 72 hours of exposure
Protocol: as §1

MG-63 xenografts [4] = assay: Immunohistochemistry of xenografts (HE, Ki-67, TUNEL); type: in vivo, mice; conditions: LD-MTX 150 mg/kg; day 35
Description: (§2) At autopsy, tumors and internal organs including liver, spleen, kidneys were excised, weighed, and then fixed in 10% PBS-buffered formalin and maintained in 70% ethanol. For IHC, fixed tumors and organs were embedded in paraplast (Oxford Labware, St. Louis, Mo.), cut in 6 μm thick sections, and stained with hematoxylin and eosin (HE) for histopathological examination.
For Ki-67 proliferation assay, tumor sections were deparaffinized with xylene and rehydrated through graded ethanol. Endogenous peroxidase activity was blocked with 3% hydrogen peroxide in methanol. […] After incubation, tumor sections were stained with diaminobenzidine (DAB) and counterstained with hematoxylin. Terminal deoxynucleotidyl transferase dUTP nick end labeling (TUNEL) apoptosis assay was performed using ApopTaq Plus Peroxidase In Situ Apoptosis Kit (Millipore) according to the manufacturer's protocol. Percent positive cells in representative microscopic fields were counted using ImageJ (17).

MG-63 xenografts [5] = assay: Growth of MG-63 xenografts in athymic nude mice; type: in vivo; conditions: LD-MTX 150 mg/kg, single agent
Protocol: All animal experiments strictly followed the guidelines of Cedars-Sinai Medical Center and the National Institute of Health (NIH). Female nu/nu athymic nude mice (5-6 weeks old; average weight 21 g; specific pathogen-free) from Harlan Laboratories (Indianapolis, Ind.) were maintained in pathogen-free condition with sterilized chow and water. 5×10^6 cells of MG-63 cells were mixed with 200 μl of Matrigel solution (BD Biosciences) per injection, and the mixture was injected subcutaneously on the upper flanks of nude mice. After 24 hours, tumor size was measured, and any outliers were ruled out by one-way analysis of variance (ANOVA) test. […] The conversion was made using dose translation formula by Reagan-Shaw et al., (15). […] Body weights were monitored every 2 days. Tumor size was measured every 2 days, and the tumor volume was calculated using the following formula: A (length)×B (width)×C (height)×0.5236 (16). The experiment was stopped at day 35, and all mice were sacrificed. The presence of metastatic spread was examined macroscopically at the time of autopsy followed by histological examination. At least two tumors from each group were snap-frozen in liquid nitrogen for Western blotting.

Serum chemistry in mice = type: in vivo; conditions: LD-MTX 150 mg/kg; day 35
Protocol: (§3) Whole blood samples were obtained by submandibular bleeding and serum samples were harvested with serum separator tubes (BD Biosciences). Blood count and serum chemistry results were obtained by the Hemagen Analyst Benchtop Chemistry System (Hemagen Diagnostics, Inc. Columbia, Md.). Colony-forming cell (CFC) assays were performed as previously described (18).

Blood counts in mice = type: in vivo; conditions: LD-MTX 150 mg/kg; day 35
Protocol: as §3

human OS cells = conditions: LD-MTX alone; xenograft studies using murine models (refs 24, 37); cited from earlier work
[6] = test system: clonogenic hematopoietic cells; assay: Colony-forming cell (CFC) assays of bone marrow; conditions: LD-MTX 150 mg/kg; day 35; 2 × 10^4 cells/well
Protocol: as §3

[7] = Body weight and side-effects during xenograft treatment; type: in vivo, mice; conditions: LD-MTX 150 mg/kg
Protocol: All animal experiments strictly followed the guidelines of Cedars-Sinai Medical Center and the National Institute of Health (NIH). Female nu/nu athymic nude mice (5-6 weeks old; average weight 21 g; specific pathogen-free) from Harlan Laboratories (Indianapolis, Ind.) were maintained in pathogen-free condition with sterilized chow and water. 5×10^6 cells of MG-63 cells were mixed with 200 μl of Matrigel solution (BD Biosciences) per injection, and the mixture was injected subcutaneously on the upper flanks of nude mice. After 24 hours, tumor size was measured, and any outliers were ruled out by one-way analysis of variance (ANOVA) test. […] The dose of LD-MTX was the murine equivalent of the human dose of LD-MTX. The conversion was made using dose translation formula by Reagan-Shaw et al., (15). […] Body weights were monitored every 2 days. Tumor size was measured every 2 days, and the tumor volume was calculated using the following formula: A (length)×B (width)×C (height)×0.5236 (16). The experiment was stopped at day 35, and all mice were sacrificed. The presence of metastatic spread was examined macroscopically at the time of autopsy followed by histological examination. At least two tumors from each group were snap-frozen in liquid nitrogen for Western blotting.

Organ weight in mice = type: in vivo; conditions: LD-MTX 150 mg/kg; day 35
Description: as §2

## CN(Cc1cnc2nc(N)nc(N)c2n1)c1ccc(C(=O)N[C@@H](CCC(=O)O)C(=O)O)cc1 [MTX, methotrexate, reference compound]
MG-63 cells [1]
  EC50: 50 nM
MG-63 cells [2]
  earliest sign of S-phase arrest: 48 h
MG-63 cells [3]
  apoptotic cells: 30%
MG-63 xenografts [4]
  HE-stained tumors: less number of blood vessels
MG-63 xenografts [5]
  tumor volume: allowed the tumor volume to increase slightly from its original size
Serum chemistry in mice
  CK: 183.0 ± 140 U/l
  bilirubin: 0.12 ± 0.00 mg/dL
  cholesterol: 148.5 ± 24.7 mg/dL
  creatine: 0.39 ± 0.21 mg/dL
  globulin: 1.3 ± 0.4 g/dL
  total protein: 4.6 ± 0.7 g/dL
  uric acid: 4.7 ± 0.8 mg/dL
Blood counts in mice
  Basophils: 0.00 ± 0.00 K/μl
  Eosinophils: 0.00 ± 0.00 K/μl
  Lymphocytes: 4.05 ± 0.58 K/μl
  Monocytes: 0.17 ± 0.04 K/μl
  Neutrophills: 0.56 ± 0.42 K/μl
  RBCs: 7.69 ± 0.16 M/μl
  WBCs: 4.80 ± 0.99 K/μl
Human OS cells
  growth inhibition of human OS cells: < 20%
[6]
  BFU-E, number of colonies: 7.1 ± 0.8
  CFU-GEMM, number of colonies: 3.4 ± 0.5
  CFU-GM, number of colonies: 64.6 ± 3.6
[7]
  mice with sluggish movements, occasional diarrhea, and a patchy skin rash: 60%
[7]; some mice, 48 hours after MTX injection
  body weight loss: 10%
Organ weight in mice
  Kidney organ weight: 345 ± 1 mg
  Liver organ weight: 1120 ± 21 mg
  Spleen organ weight: 135 ± 7 mg

Reference: US20120238532A1, “TREATMENT OF HUMAN OSTEOSARCOMA” (CEDARS-SINAI MEDICAL CENTER, priority 2009, published 2012)
